Test results from PubChem BioAssay (NCI).
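The concentration for 50% growth inhibition is given as GI50. Definition used: TGI = concentration required for complete inhibition of growth.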

Assays:
Assay in all cases: NCI tumour cell line growth inhibition, 384-well format
[1] = tested on: MDA-MB-435 melanoma
[2] = tested on: TK-10 renal
[3] = tested on: ACHN renal
[4] = tested on: LOX IMVI melanoma
[5] = tested on: UACC-62 melanoma
[6] = tested on: SK-MEL-5 melanoma
[7] = tested on: MDA-MB-231 breast
[8] = tested on: SK-MEL-28 melanoma
[9] = tested on: HOP-62 NSCLC
[10] = tested on: SW-620 colon
[11] = tested on: CCRF-CEM leukemia
[12] = tested on: PC-3 prostate
[13] = tested on: DU-145 prostate
[14] = tested on: MALME-3M melanoma
[15] = tested on: NCI-H322M lung
[16] = tested on: NCI/ADR-RES ovarian
[17] = tested on: A549 NSCLC
[18] = tested on: K-562 leukemia
[19] = tested on: 786-0 renal
[20] = tested on: NCI-H460 NSCLC
[21] = tested on: HOP-92 NSCLC
[22] = tested on: SNB-19 CNS
[23] = tested on: MOLT-4 leukemia
[24] = tested on: HCT-15 colon
[25] = tested on: OVCAR-5 ovarian
[26] = tested on: OVCAR-4 ovarian
[27] = tested on: SN12C renal
[28] = tested on: U251 glioblastoma
[29] = tested on: MCF7 breast
[30] = tested on: A498 renal
[31] = tested on: SR leukemia
[32] = tested on: OVCAR-3 ovarian
[33] = tested on: T-47D breast
[34] = tested on: UACC-257 melanoma
[35] = tested on: SNB-75 CNS
[36] = tested on: HT29 colon
[37] = tested on: OVCAR-8 ovarian
[38] = tested on: HL-60(TB) leukemia
[39] = tested on: SF-295 CNS
[40] = tested on: UO-31 renal
[41] = tested on: NCI-H522 lung
[42] = tested on: SF-539 CNS
[43] = tested on: SK-MEL-2 melanoma
[44] = tested on: HCT-116 colon
[45] = tested on: RPMI-8226 leukemia
[46] = tested on: NCI-H23 lung
[47] = tested on: RXF 393 renal
[48] = tested on: MDA-MB-468 breast
[49] = tested on: SF-268 CNS
[50] = tested on: IGROV1 ovarian
[51] = tested on: BT-549 breast
[52] = tested on: CAKI-1 renal
[53] = tested on: EKVX NSCLC
[54] = tested on: HCC-2998 colon
[55] = tested on: KM12 colon
[56] = tested on: COLO 205 colon
[57] = tested on: M14 melanoma
[58] = tested on: NCI-H226 lung
[59] = tested on: SK-OV-3 ovarian

CC(C)Oc1ccc(-c2nn([C@@H](C)c3oc4ccc(F)cc4c(=O)c3-c3cccc(F)c3)c3ncnc(N)c23)cc1F
GI50 [1]: > 100 µM | TGI [1]: > 100 µM | GI50 [2]: > 100 µM | TGI [2]: > 100 µM | GI50 [3]: > 86.8 µM | TGI [3]: > 100 µM | GI50 [4]: > 100 µM | TGI [4]: > 100 µM | GI50 [5]: > 100 µM | TGI [5]: > 100 µM | GI50 [6]: > 29.3 µM | TGI [6]: > 100 µM | GI50 [7]: 9.94 µM | TGI [7]: > 100 µM | GI50 [8]: > 100 µM | TGI [8]: > 100 µM | GI50 [9]: > 100 µM | TGI [9]: > 100 µM | GI50 [10]: > 90.1 µM | TGI [10]: > 100 µM | GI50 [11]: 3.62 µM | TGI [11]: > 83.9 µM | GI50 [12]: 7.27 µM | TGI [12]: > 100 µM | GI50 [13]: > 100 µM | TGI [13]: > 100 µM | GI50 [14]: > 100 µM | TGI [14]: > 100 µM | GI50 [15]: > 100 µM | TGI [15]: > 100 µM | GI50 [16]: 19.5 µM | TGI [16]: > 100 µM | GI50 [17]: 11.1 µM | TGI [17]: > 100 µM | GI50 [18]: 5.18 µM | TGI [18]: > 100 µM | GI50 [19]: 26.2 µM | TGI [19]: > 100 µM | GI50 [20]: 10.5 µM | TGI [20]: > 100 µM | GI50 [21]: 8.09 µM | TGI [21]: > 80.9 µM | GI50 [22]: > 100 µM | TGI [22]: > 100 µM | GI50 [23]: 3.51 µM | TGI [23]: > 100 µM | GI50 [24]: 32.5 µM | TGI [24]: > 100 µM | GI50 [25]: > 100 µM | TGI [25]: > 100 µM | GI50 [26]: 6.49 µM | TGI [26]: > 100 µM | GI50 [27]: > 100 µM | TGI [27]: > 100 µM | GI50 [28]: 88.8 µM | TGI [28]: > 100 µM | GI50 [29]: 9.51 µM | TGI [29]: > 100 µM | GI50 [30]: 8.65 µM | TGI [30]: > 100 µM | GI50 [31]: 2.84 µM | TGI [31]: 14.9 µM | GI50 [32]: 12.1 µM | TGI [32]: > 100 µM | GI50 [33]: 6.03 µM | TGI [33]: > 100 µM | GI50 [34]: > 100 µM | TGI [34]: > 100 µM | GI50 [35]: 33.5 µM | TGI [35]: > 100 µM | GI50 [36]: > 100 µM | TGI [36]: > 100 µM | GI50 [37]: 11.8 µM | TGI [37]: > 100 µM | GI50 [38]: 5.31 µM | TGI [38]: > 36 µM | GI50 [39]: > 100 µM | TGI [39]: > 100 µM | GI50 [40]: 1.94 µM | TGI [40]: 7.54 µM | GI50 [41]: 12.9 µM | TGI [41]: > 100 µM | GI50 [42]: 20.3 µM | TGI [42]: > 100 µM | GI50 [43]: > 100 µM | TGI [43]: > 100 µM | GI50 [44]: 13.9 µM | TGI [44]: > 100 µM | GI50 [45]: 3.34 µM | TGI [45]: 9.04 µM | GI50 [46]: 38.5 µM | TGI [46]: > 100 µM | GI50 [47]: 2.45 µM | TGI [47]: 11.5 µM | GI50 [48]: 5.71 µM | TGI [48]: > 83.7 µM | GI50 [49]: > 100 µM | TGI [49]: > 100 µM | GI50 [50]: > 100 µM | TGI [50]: > 100 µM | GI50 [51]: 10.3 µM | TGI [51]: > 100 µM | GI50 [52]: > 100 µM | TGI [52]: > 100 µM | GI50 [53]: > 100 µM | TGI [53]: > 100 µM | GI50 [54]: > 100 µM | TGI [54]: > 100 µM | GI50 [55]: > 100 µM | TGI [55]: > 100 µM | GI50 [56]: > 100 µM | TGI [56]: > 100 µM | GI50 [57]: > 100 µM | TGI [57]: > 100 µM | GI50 [58]: 51.5 µM | TGI [58]: > 100 µM | GI50 [59]: > 100 µM | TGI [59]: > 100 µM
